Values belong to the molecule of their own block, whether it stands above or below them.
What was measured:
[1] = tested on: human Lung-LUSC cell lines; assay: CCK8 cell proliferation, MY33-3, Lung-LUSC cell lines; assay type: cell-based; conditions: 7 human Lung LUSC cell lines; 72 hours
Method: (§1) The CCK8 method was used to detect the effect of PTPRZ1 inhibitor MY33-3 on cell proliferation. 7 strains of human Lung-LUSC cells, one strain of human lung adenocarcinoma cell, one strain of human normal lung epithelial cell BEAS-2B, and one strain of PTPRZ1 high expressing cell line U251 (high expression of PTPRZ1 gene in glioma cells) were used in this experiment for detection. Each cell line was inoculated into a 96-well plate at a density of 6000 cells/well, cultured for 24 hours, and then 100 μL of MY33-3 working solution was added to the test wells at final concentrations of 0 μM, 1 μM, 2 μM, 4 μM, 8 μM, 16 μM, 32 μM, and 64 μM, while 100 μL of medium was added to the blank control well. After 72 hours of drug treatment, 20 μL of CCK8 was added in proportion and incubated for 1 hour. The absorbance value was measured at 450 nm, and the IC50 values of MY33-3 against different cells were plotted.

[2] = tested on: human normal lung epithelial cell line BEAS-2B; assay: CCK8 cell proliferation, MY33-3, BEAS-2B; assay type: cell-based; conditions: 72 hours
Method: as §1

[3] = tested on: PTPRZ1 glioma cell line U251; assay: CCK8 cell proliferation, MY33-3, U251; assay type: cell-based; conditions: Homo sapiens, U-251, 72 hours
Method: as §1

[4] = tested on: human Lung-LUSC (H520) cells; assay: Subcutaneous tumor formation in nude mice (H520); assay type: in vivo, BALB/c-nu mice; conditions: for tumor size compared with the model group / tumor volume compared with the model group: after 21 days of administration
Method: At the animal level, the method of subcutaneous tumor formation in nude mice was used to verify the therapeutic effect of the inhibitor MY33-3 on the tumor formation of human Lung-LUSC (H520) cells. Firstly, 30 of 4W BALB/c-nu mice were purchased from GemPharmatech and acclimated for 3 days. Then, 150 μL of pre-prepared H520 cells was injected subcutaneously into the right forelimb of nude mice at 8×10^6 cells/mouse. After 7 days, the tumor growth of each nude mouse was observed, and the mice were grouped and received drugs when the tumor grew to 100 mm^3. Mice were divided into the blank group, the model group, the low-dose group, and the high-dose group, with 7 mice in each group. Meanwhile, the inhibitor MY33-3 was administered at doses of 20 mg/kg (low-dose group) and 100 mg/kg (high-dose group) once every 2 days, and the changes in tumor growth were recorded using a vernier caliper. Then, after 21 days of administration, samples were collected, and the therapeutic effect of the inhibitor MY33-3 on human Lung-LUSC cells was evaluated using indicators such as tumor volume, tumor weight, and nude mouse weight.

[5] = tested on: human Lung LUAD cell line; assay: CCK8 cell proliferation, MY33-3, lung adenocarcinoma cell line; assay type: cell-based; conditions: one human Lung LUAD cell line; 72 hours
Method: as §1

[6] = tested on: PTPRZ1 glioma cell line (U251); assay: CCK8 cell survival, MY-10, U251; assay type: cell-based; conditions: 0-8 μM, 72 hours
Method: (§2) The CCK8 method was used to detect the effect of the PTPRZ1 inhibitor MY-10 on cell proliferation. 3 human Lung-LUSC cells and one PTPRZ1 high expression cell line U251 (high expression of PTPRZ1 gene in glioma cells) were used in this experiment for detection. Each cell line was inoculated into a 96-well plate at a density of 5000 cells/well, cultured for 24 hours, and then 100 μL of MY-10 working solution was added at final concentrations of 0 μM, 1 μM, 2 μM, […], 6 μM, and […] to the test wells, while 100 μL of medium was added to the blank control well. After 72 hours of drug treatment, 20 μL of CCK8 was added in proportion, followed by incubating for 1 h. The absorbance value was measured at 450 nm, and the survival rates of MY-10 against different Lung-LUSC cells were plotted.

H520 cells = assay: CCK8 cell survival, MY-10, H520; assay type: cell-based, human; conditions: 72 hours
Method: as §2

H1703 = assay: CCK8 cell survival, MY-10, H1703; assay type: cell-based, human; conditions: 0-8 μM, 72 hours
Method: as §2

LK-2 = assay: CCK8 cell survival, MY-10, LK-2; assay type: cell-based, human; conditions: 0-8 μM, 72 hours
Method: as §2

[7] = tested on: human normal lung epithelial cell BEAS-2B; assay: CCK8 cell growth inhibition by NAZ2329, BEAS-2B; assay type: cell-based; conditions: 5-70 μM, 72 hours
Method: (§3) The CCK8 method was used to detect the inhibition rate of PTPRZ1 inhibitor NAZ2329 on cell growth. 5 strains of human Lung-LUSC cells, one strain of human normal lung epithelial cell BEAS-2B, and one strain of highly expressed PTPRZ1 cell line U251 (High expression of PTPRZ1 gene in glioma cells) were used in this experiment for detection. Each cell line was inoculated into a 96-well plate at a density of 8000 cells/well, and cultured for 18 h. Then, 100 μL of NAZ2329 solution was added to the test wells at final concentrations of 5 μM, 10 μM, 20 μM, 30 μM, 40 μM, 50 μM, 60 μM, and 70 μM, while 100 μL of medium was added to the blank control well. After 72 hours of drug treatment, 20 μL of CCK8 was added in proportion and incubated for 2 h. The absorbance value was measured at 450 nm and the inhibition rate curve was plotted.

glioma cell line U251 = assay: CCK8 cell growth inhibition by NAZ2329, U251; assay type: cell-based; conditions: 5-70 μM, 72 hours
Method: as §3

human Lung-LUSC cells = assay: CCK8 cell growth inhibition by NAZ2329, Lung-LUSC cells; assay type: cell-based; conditions: 5-70 μM, 72 hours
Method: as §3

IC50 [3]: 33 µM
weight of nude mice versus model group ([4]; high-dose group 100 mg/kg): no significant difference
weight of nude mice versus model group ([4]; low-dose group 20 mg/kg): no significant difference
IC50 [5]: 25 µM
SMILES: FC(F)(F)Sc1ccc(CNCc2ccc(SC(F)(F)F)cc2)cc1 [MY33-3]
IC50 [1]: < 16 µM
IC50 [2]: 28 µM
inhibitory effect on tumorigenicity of H520 cells ([4]; dose of 20 mg/kg): good inhibitory effect
tumor size compared with the model group ([4]; high-dose group 100 mg/kg once every 2 days): significantly decreased
tumor volume compared with the model group ([4]; high-dose group 100 mg/kg): more significantly decreased
tumor size compared with the model group ([4]; low-dose group 20 mg/kg once every 2 days): significantly decreased
tumor volume compared with the model group ([4]; low-dose group 20 mg/kg): more significantly decreased

SMILES: FC(F)(F)Sc1ccc(CCCOc2ccc(SC(F)(F)F)cc2)cc1 [MY-10]
inhibitory effect with increasing concentrations [6]: significant inhibitory effects
inhibitory effect with increasing concentrations (H520 cells; H520, 0-8 μM): significant inhibitory effects
IC50 (H520 cells; Homo sapiens, NCI-H520, H520 cells, read-out: IC50 (survival rate)): ~4 µM
inhibitory effect with increasing concentrations (H1703): significant inhibitory effects
inhibitory effect with increasing concentrations (LK-2): significant inhibitory effects

SMILES: CCOc1ccc(C(F)(F)F)cc1CSc1ccsc1C(=O)NS(=O)(=O)c1ccccc1 [NAZ2329]
cell growth with increasing treatment concentration [7]: inhibited
cell growth with increasing treatment concentration (glioma cell line U251): inhibited
growth inhibition rate on cell growth (human Lung-LUSC cells; 4 strains of Lung-LUSC cells, compared with BEAS-2B and U251): significantly higher than that of human normal lung epithelial cells BEAS-2B and glioma cell line U251
cell growth with increasing treatment concentration (human Lung-LUSC cells; Lung-LUSC cells): inhibited
